Reference: PMC7932537, “Quantitative profiling of protease specificity” (PLoS Computational Biology, 2021)

What was measured:
MMP-2 = target: T1, MMP-2 (Homo sapiens, UniProt P08253); experiment: K(obs) of individual phage substrates (set of 1369); assay type: biochemical; settings: MMP2; individual phage substrate from the set of 1369 peptides; hyphen in the sequence marks the cleavage position
T1 sequence (P08253 110-660): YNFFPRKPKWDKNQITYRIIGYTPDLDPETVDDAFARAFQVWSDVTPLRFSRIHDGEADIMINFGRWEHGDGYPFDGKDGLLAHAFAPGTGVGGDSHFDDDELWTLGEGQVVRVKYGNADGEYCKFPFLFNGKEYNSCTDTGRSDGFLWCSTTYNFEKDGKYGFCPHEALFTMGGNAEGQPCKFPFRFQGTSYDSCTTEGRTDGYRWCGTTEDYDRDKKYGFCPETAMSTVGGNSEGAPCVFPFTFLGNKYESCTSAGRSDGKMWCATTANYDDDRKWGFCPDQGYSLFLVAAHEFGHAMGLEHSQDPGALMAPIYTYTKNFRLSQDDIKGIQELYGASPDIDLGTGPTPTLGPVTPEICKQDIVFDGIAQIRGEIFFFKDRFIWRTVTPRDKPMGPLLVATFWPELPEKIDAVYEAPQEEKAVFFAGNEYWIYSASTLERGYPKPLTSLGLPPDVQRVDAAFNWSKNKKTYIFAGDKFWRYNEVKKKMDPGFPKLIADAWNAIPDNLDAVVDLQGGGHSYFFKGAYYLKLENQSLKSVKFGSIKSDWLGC

MMP-9 [1] = target: MMP-9 (Homo sapiens, UniProt P14780); experiment: as above; assay type: biochemical; settings: MMP9; individual phage substrate of the set of 1369 peptides; dash in sequence marks cleavage position
MMP-9 [2] = experiment: Substrate phage display with NGS: relative probability (RP) of P3-P1' tetramer clusters; assay type: biochemical, human; settings: MMP9; RP of the substrate's P3-P1' tetramer, substrate phage display with NGS;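 also: ratio of tetramer probability after protease selection to that in naive phage library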

Sequence of MMP-9 (Homo sapiens, UniProt P14780) (P14780 94-707): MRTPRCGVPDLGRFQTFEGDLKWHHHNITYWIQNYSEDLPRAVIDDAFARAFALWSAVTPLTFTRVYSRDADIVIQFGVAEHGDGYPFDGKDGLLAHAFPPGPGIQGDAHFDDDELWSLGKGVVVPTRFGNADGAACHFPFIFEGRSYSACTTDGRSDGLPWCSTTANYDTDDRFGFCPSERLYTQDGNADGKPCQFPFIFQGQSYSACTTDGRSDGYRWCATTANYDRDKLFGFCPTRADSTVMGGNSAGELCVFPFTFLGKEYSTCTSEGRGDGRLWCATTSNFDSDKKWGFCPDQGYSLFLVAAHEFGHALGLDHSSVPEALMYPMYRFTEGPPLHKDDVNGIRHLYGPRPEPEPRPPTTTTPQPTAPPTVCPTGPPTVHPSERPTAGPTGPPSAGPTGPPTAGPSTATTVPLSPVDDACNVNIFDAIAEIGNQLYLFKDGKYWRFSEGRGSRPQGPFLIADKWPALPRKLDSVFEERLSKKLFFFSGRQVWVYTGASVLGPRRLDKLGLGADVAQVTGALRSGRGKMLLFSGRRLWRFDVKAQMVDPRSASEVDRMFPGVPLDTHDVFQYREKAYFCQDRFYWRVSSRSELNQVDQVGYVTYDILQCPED

Kobs (MMP-2) | Kobs (MMP-9 [1]) | Substance | relative probability (RP) (MMP-9 [2])
12792.1 M⁻¹ s⁻¹ | 7815.03 M⁻¹ s⁻¹ | GFPRA-FRTAS | 44.1248
12792.1 M⁻¹ s⁻¹ | 1513.13 M⁻¹ s⁻¹ | GHIAW-FTASG | 7.9655
12792.1 M⁻¹ s⁻¹ | 4335.13 M⁻¹ s⁻¹ | GLARA-LKTAS | 38.5396
12792.1 M⁻¹ s⁻¹ | 12792.1 M⁻¹ s⁻¹ | GLPAA-LTTAS | 47.6262
6396.07 M⁻¹ s⁻¹ | 3253.29 M⁻¹ s⁻¹ | GMLRA-MHTAS | 36.706
10866.7 M⁻¹ s⁻¹ | 12792.1 M⁻¹ s⁻¹ | GMPLG-LRTAS | 48.9856
12792.1 M⁻¹ s⁻¹ | 12792.1 M⁻¹ s⁻¹ | GMPRS-YITAS | 44.546
12792.1 M⁻¹ s⁻¹ | 12792.1 M⁻¹ s⁻¹ | GMVLG-LHTAS | 34.6877
7386.83 M⁻¹ s⁻¹ | 2761.81 M⁻¹ s⁻¹ | GMVRG-VTASG | 13.8249
12792.1 M⁻¹ s⁻¹ | 12792.1 M⁻¹ s⁻¹ | GQPRA-IRTAS | 47.8426
4082.43 M⁻¹ s⁻¹ | 1283.43 M⁻¹ s⁻¹ | GRATA-LYTAS | 15.5991
12792.1 M⁻¹ s⁻¹ | 7815.03 M⁻¹ s⁻¹ | GRPRS-LLTAS | 44.7764
12792.1 M⁻¹ s⁻¹ | 12792.1 M⁻¹ s⁻¹ | GRPVN-LTTAS | 46.0636
1418.96 M⁻¹ s⁻¹ | 2038.8 M⁻¹ s⁻¹ | GSAIP-LWTAS | 32.5296
12792.1 M⁻¹ s⁻¹ | 0 M⁻¹ s⁻¹ | GSHAA-LRTAS | 0.9522
12792.1 M⁻¹ s⁻¹ | 12792.1 M⁻¹ s⁻¹ | GSPLP-FITAS | 46.6229
8321.48 M⁻¹ s⁻¹ | 9740.44 M⁻¹ s⁻¹ | GTPIE-LYTAS | 35.3641
12792.1 M⁻¹ s⁻¹ | 12792.1 M⁻¹ s⁻¹ | GTPRN-IKTAS | 46.5688
4205.91 M⁻¹ s⁻¹ | 7815.03 M⁻¹ s⁻¹ | GVPKN-QMTAS | 35.1259
12792.1 M⁻¹ s⁻¹ | 10866.7 M⁻¹ s⁻¹ | GVPRG-VRTAS | 42.1832
12792.1 M⁻¹ s⁻¹ | 0 M⁻¹ s⁻¹ | GYFAN-LTASG | 0.8121
12792.1 M⁻¹ s⁻¹ | 12792.1 M⁻¹ s⁻¹ | GYPRG-LGTAS | 47.3825
12792.1 M⁻¹ s⁻¹ | 5090.5 M⁻¹ s⁻¹ | IFPAN-HTASG | 10.2001

Second part, the substance before the results:

Substance | Kobs (MMP-2) | Kobs (MMP-9 [1]) | relative probability (RP) (MMP-9 [2])
GFTRW-LTASG | 4763.33 M⁻¹ s⁻¹ | 6396.07 M⁻¹ s⁻¹ | 25.6075
GFVFE-LRTAS | 5889.62 M⁻¹ s⁻¹ | 9740.44 M⁻¹ s⁻¹ | 20.3412
GGIAA-MRTAS | 1071.29 M⁻¹ s⁻¹ | 386.839 M⁻¹ s⁻¹ | 10.5791
GGPAP-MWTAS | 2476.66 M⁻¹ s⁻¹ | 5667.28 M⁻¹ s⁻¹ | 45.1106
GGPST-LTASG | 9740.44 M⁻¹ s⁻¹ | 4613.14 M⁻¹ s⁻¹ | 36.3405
GGSGN-LTVKT | 12792.1 M⁻¹ s⁻¹ | 0 M⁻¹ s⁻¹ | 1.504
GHPSP-FTASG | 12792.1 M⁻¹ s⁻¹ | 0 M⁻¹ s⁻¹ | 37.3217
GLVWN-LWTAS | 1660.66 M⁻¹ s⁻¹ | 8321.48 M⁻¹ s⁻¹ | 38.922
GMPGR-LSTAS | 7015.91 M⁻¹ s⁻¹ | 517.582 M⁻¹ s⁻¹ | 29.3451
GMPLL-LRTAS | 8321.48 M⁻¹ s⁻¹ | 12792.1 M⁻¹ s⁻¹ | 32.5638
GMPRA-YRTAS | 12792.1 M⁻¹ s⁻¹ | 12792.1 M⁻¹ s⁻¹ | 46.2238
GNPAQ-MRTAS | 12792.1 M⁻¹ s⁻¹ | 7015.91 M⁻¹ s⁻¹ | 38.7952
GNPLG-IRTAS | 12792.1 M⁻¹ s⁻¹ | 12792.1 M⁻¹ s⁻¹ | 48.5606
GRLLA-MHTAS | 2687.73 M⁻¹ s⁻¹ | 1112.44 M⁻¹ s⁻¹ | 12.6533
GRPAG-VKTAS | 12792.1 M⁻¹ s⁻¹ | 3079.62 M⁻¹ s⁻¹ | 31.0803
GRPAQ-MKTAS | 3850.82 M⁻¹ s⁻¹ | 5667.28 M⁻¹ s⁻¹ | 38.7952
GRPLN-LSTAS | 12792.1 M⁻¹ s⁻¹ | 12792.1 M⁻¹ s⁻¹ | 48.0943
GRPSA-MTTAS | 3741.87 M⁻¹ s⁻¹ | 9740.44 M⁻¹ s⁻¹ | 46.4881
GRPSF-LKTAS | 12792.1 M⁻¹ s⁻¹ | 8321.48 M⁻¹ s⁻¹ | 37.0272
GRPSP-FWTAS | 12792.1 M⁻¹ s⁻¹ | 3850.82 M⁻¹ s⁻¹ | 37.3217
GSGRG-LWSET | 799.117 M⁻¹ s⁻¹ | 1373.05 M⁻¹ s⁻¹ | 11.4523
GSPRN-LRTAS | 12792.1 M⁻¹ s⁻¹ | 12792.1 M⁻¹ s⁻¹ | 48.2698
GVLRN-LITAS | 12792.1 M⁻¹ s⁻¹ | 6688.74 M⁻¹ s⁻¹ | 37.603
GVPRA-VTASG | 6396.07 M⁻¹ s⁻¹ | 12792.1 M⁻¹ s⁻¹ | 40.8515

Substance | Kobs (MMP-2) | Kobs (MMP-9 [1]) | relative probability (RP) (MMP-9 [2])
GVPRY-LRTAS | 12792.1 M⁻¹ s⁻¹ | 12792.1 M⁻¹ s⁻¹ | 44.5304
GVPSK-LTASG | 12792.1 M⁻¹ s⁻¹ | 12792.1 M⁻¹ s⁻¹ | 38.9571
GVVGA-LRTAS | 10866.7 M⁻¹ s⁻¹ | 874.197 M⁻¹ s⁻¹ | 19.0529
GWIAT-LRTAS | 5090.5 M⁻¹ s⁻¹ | 1561.44 M⁻¹ s⁻¹ | 0.199
GWPSE-LRTAS | 12792.1 M⁻¹ s⁻¹ | 12792.1 M⁻¹ s⁻¹ | 41.3266
GYPAG-LRTAS | 12792.1 M⁻¹ s⁻¹ | 12792.1 M⁻¹ s⁻¹ | 47.2274
HAPSL-YTASG | 12792.1 M⁻¹ s⁻¹ | 12792.1 M⁻¹ s⁻¹ | 23.6706
HKIAL-LTASG | 7386.83 M⁻¹ s⁻¹ | 56.119 M⁻¹ s⁻¹ | 0.8483
HMPLG-LTASG | 12792.1 M⁻¹ s⁻¹ | 12792.1 M⁻¹ s⁻¹ | 48.9856
HRPEW-YTASG | 3741.87 M⁻¹ s⁻¹ | 4082.43 M⁻¹ s⁻¹ | 25.7162
HTVRG-LTASG | 12792.1 M⁻¹ s⁻¹ | 12792.1 M⁻¹ s⁻¹ | 42.3063
HTVRN-VTASG | 5269.78 M⁻¹ s⁻¹ | 3079.62 M⁻¹ s⁻¹ | 19.0254
HTVYW-MTASG | 2038.8 M⁻¹ s⁻¹ | 6396.07 M⁻¹ s⁻¹ | 40.8648
HVPRQ-VTASG | 27.918 M⁻¹ s⁻¹ | 8941.32 M⁻¹ s⁻¹ | 25.107
HVVAK-MTASG | 6396.07 M⁻¹ s⁻¹ | 1981.53 M⁻¹ s⁻¹ | 0.5992
HVVAQ-LTASG | 12792.1 M⁻¹ s⁻¹ | 551.253 M⁻¹ s⁻¹ | 6.994
HYVRA-HTASG | 10866.7 M⁻¹ s⁻¹ | 4205.91 M⁻¹ s⁻¹ | 18.814
IAPAK-LTASG | 12792.1 M⁻¹ s⁻¹ | 12792.1 M⁻¹ s⁻¹ | 39.5582
IAPEF-LTASG | 12792.1 M⁻¹ s⁻¹ | 12792.1 M⁻¹ s⁻¹ | 20.835
IFARS-LTASG | 12792.1 M⁻¹ s⁻¹ | 12792.1 M⁻¹ s⁻¹ | 26.1862
IGVRA-LTASG | 12792.1 M⁻¹ s⁻¹ | 12792.1 M⁻¹ s⁻¹ | 43.1929
IGVRQ-LTASG | 3536.02 M⁻¹ s⁻¹ | 12792.1 M⁻¹ s⁻¹ | 23.9228
ILLSP-LTASG | 12792.1 M⁻¹ s⁻¹ | 1030.73 M⁻¹ s⁻¹ | 4.611
